Tests used:
[1] = test system: subq human A2058 melanoma tumors; test: Tumor growth inhibition in mice bearing subq A2058 tumors (Example 4.2); type: in vivo
Description: To determine TGI effects, the T/C (tumor/control) ratio was determined by calculating the relative percentage increase in TV (tumor volume) for the individual mice of each group (TV of the day of randomization as reference point), and then dividing the group median relative increase in TV for the treated groups by that for the PBS group. Outliers (with respect to individual TVs) within each treatment group were determined by using the formulas Q1−1.5×IQR (lower limit) and Q3+1.5×IQR (upper limit).
Statistical analysis was performed using Graphpad Prism 7. A two-tailed, non-parametric Mann-Whitney test was used to calculate differences in relative tumor volumes (TV on day ‘X’ divided by TV on the day of randomization). In all statistical tests, the effect of the test items was compared to the PBS group. A p-value <0.05 was considered statistically significant.
Four to six weeks old female athymic nude mice (Crl:NU(NCr)-Foxn1nu; Charles River) were unilaterally and subcutaneously injected in the flank with 1×10^7 A2058 cells in 50% matrigel (0.2 mL/mouse). At the time of randomization, the TVs (tumor volumes) ranged between 139.4 and 245.5 mm3 (median 161.3, IQR=149.9-175.1). Body weights and TVs (caliper measurements) were determined three times/week. […]

[2] = test system: K-Ras, MCL1, ENTPD1 (CD39) and TIM-3; test: PD effect: target gene mRNA in orthotopic 4T1 tumors by qPCR (Example 4.6); type: in vivo, mice; settings: 10 mg/kg iv QDx2; various time points 2-72 h post final dose
Description: To prepare cDNA, first 100 ng total RNA was mixed with Random Hexamers (Qiagen; final concentration 2 μM) in a final volume of 12.5 μl in NFW, denatured for 5 min at 70° C. and immediately cooled on ice. Next, 7.5 μl of a cDNA synthesis mix was added, consisting of 4 μl 5×RT Buffer (Promega), 0.4 μl 25 mM dNTPs (Promega), 1 μl 200 U/μL MMLV RT-enzyme (Promega), 0.5 μL 40 U/μL RNAse Inhibitor (Promega) and 1.6 μL NFW. The following cDNA synthesis protocol was used:
Six to eight weeks old female BALB/c mice (Shanghai Lingchang Bio-Technology Co. Ltd, Shanghai, China) were injected with 3×10^5 4T1 mouse tumor cells in PBS (0.1 mL/mouse) into the mammary fat pad. At the time of randomization, the tumor volumes (TVs) ranged between 252.30-370.45 mm^3. After randomization mice received similar treatments with similar dosing regimen (see Table 11). Mice were sacrificed at pre-determined time points (see Table 11). The tumors from each mouse were collected, snap frozen in liquid nitrogen and then stored at −80° C.
Assessed genes include K-Ras, MCL1, ENTPD1 (CD39) and TIM-3. The role and biological importance for these target genes is briefly discussed in Table 12.

EMT6 = test: Cell viability (MTS assay or cell count); type: cell-based; settings: 10 nM; TNBC EMT6; normalized to mock
Description: (§1) Depending on cancer cell type 3000-6000 cells were seeded in a 96 well plate. After cells attached, they were transfected with different concentrations of miRNA-193a and viability was measured at different time points. Viability measurement was performed using CellTiter 96 AQueous One Solution Cell Proliferation Assay (Promega). 20 μL of MTS reagent was added to 100 μL of media in each well in 96-well plate and incubated for 2 hours at 37° C. Absorbance was measured at 490 nm for each sample in 96 well plate reader.
(§2) Different biological effects of miRNA-193a-3p have been tested in various cancer cell lines (see Table 13). For this, various cells were treated with miRNA-193a at different concentrations (1, 3, 10 nM). For all experiments controls (untreated, mock and scrambled) were measured. […] Data shown in Table 13 are the results for miRNA-193a at 10 nM concentration at indicated time points. All the results have been quantified and normalized to the mock control.
(§3) miRNA-193a treatment in various cancer cell lines decreased cell viability over time as measured by either an MTS assay or by cell count. It enhanced apoptosis induction over time as measured by a caspase 3/7 apoptosis assay. […] It is of note that due to intrinsic characteristics and gene mutation status of each cell line, performing one method to detect apoptosis is not always ideal for all cell lines.

H1299 = test: Cell viability (MTS assay or cell count); type: cell-based; settings: 10 nM; NSCLC H1299; normalized to mock
Description: as §1, §2, §3

H1975 = test: Cell viability (MTS assay or cell count); type: cell-based; settings: 10 nM; NSCLC H1975; normalized to mock
Description: as §1, §2, §3

HCT116 = test: Cell viability (MTS assay or cell count); type: cell-based; settings: 10 nM; Colon HCT116; normalized to mock
Description: as §1, §2, §3

Panc-1 = test: Cell viability (MTS assay or cell count); type: cell-based; settings: 10 nM; Pancreas Panc-1; normalized to mock
Description: as §1, §2, §3

[3] = test system: orthotopic human Hep3b hepatocellular carcinoma tumors; test: Orthotopic Hep3b model, miRNAs in NOV340, AFP and tumor weight (Example 4.13); type: in vivo, mice; settings: NOV340 nanoparticles, 6 mg/kg iv QODx9 for 3 weeks; day 39
Description: Six to eight weeks old female SCID/Beige mice (Shanghai Lingchang Bio-Technology Co. Ltd, Shanghai, China) were orthotopically implanted with a single 2×2×2 mm piece of a subq grown Hep3b tumor into the left liver lobe. Mice were randomized based on day 21 AFP levels. At the time of randomization, the AFP levels (ng/ml plasma) ranged between 401 and 40628 ng/ml (median 2536, IQR=1037-5510). Treatments were with sorafenib, with vehicle control, or with various miRNAs (or scrambled miRNA control) encapsulated in NO340 lipid nanoparticles (Simonson and Das, Mini Rev Med Chem, 2015, 15(6): 467-474, PMID: 25807941). Treatments started on day 22 and continued for three weeks (dosing scheme in Table 21). AFP was measured once a week for 4 weeks, and BW was measured twice a week. At the end of the study tumor weights were also determined. QOD×9=one injection every other day for nine times; BID=twice daily; po=per oral.
After terminal sacrifice on day 39, AFP levels and tumor weights were determined.

## miRNA-193a: duplex of the miRNA-193a-3p of SEQ ID NO: 218 (mimic, sense) with antisense strand SEQ ID NO: 219; naked in vitro, formulated in vivo (sense UGGGACUUUGUAGGCCAGUUTT; antisense AACUGGCCUACAAAGUCCCAGU; chemistry not given here; listed as Homo sapiens)
[1]; 3 mg/kg iv QDx5 then BIW, Table 1 entry 1 nanoparticles, 12 days after start of treatment
  T/C (relative tumor volume): 0.44
[1]; formulated in nanoparticles according to the invention, 3 mg/kg iv
  TGI effects: significant TGI effects
[2]
  Target mRNAs expression in tumor: significant reduction
EMT6
  Viability (96 h): ↓↓ (Viability < 50%)
H1299
  Viability (96 h): ↓↓ (Viability < 50%)
H1975
  Viability (96 h): ↓↓ (Viability < 50%)
HCT116
  Viability (96 h): ↓↓ (Viability < 50%)
Panc-1
  Viability (96 h): ↓↓ (Viability < 50%)
[3]
  Growth of Hep3b HCC tumors measured by AFP and tumor weight: did not inhibit growth
